Test results published in patent US20150031733A1, “TETRAZOLINONE COMPOUNDS AND ITS USE” (SUMITOMO CHEMICAL COMPANY, LIMITED, priority 2012, published 2015).

The compounds below were run on cabbage moth (Plutella xylostella) (assay: Cabbage moth mortality test on sprayed cabbage). Settings: 500 ppm, 20 mL/cup sprayed on cabbage, three instar larval stages, after 5 days.
Format: in vivo
Procedure: The testing drug solutions to be used in this Test example were prepared by diluting the formulations prepared according to the above-mentioned Formulation examples with an ion-exchange water so that the active ingredient concentration was set to 500 ppm. Cabbage (green ball) was planted in a polyethylene cup and was grown until the third true leaf or the fourth true leaf was developed. To the cabbage (Brassicae oleracea) was sprayed the above-mentioned testing solutions in a ratio of 20 mL/cup. After the drug solutions were dried, to a polyethylene cup (diameter 5.5 cm) covered with a filter paper on the bottom, the cabbage cut out from the root was installed and five heads of cabbage moth (Plutella xylostella) at the three instar larval stages were released into the cup and the cup was covered with the lid. The cup was held at 25° C. and after 5 days, the number of the surviving insects was counted and the mortality of insects was calculated by the following equation. Mortality of insects(%)=(Number of dead insects/Number of tested insects)×100

| Structure (SMILES) | mortality of insects |
| --- | --- |
| Cc1cccc(-n2nnn(C)c2=O)c1COc1nc(-c2ccc(Br)cc2F)cs1 [Compound T034, 2-{[1-(4,5-dihydro-4-methyl-5-oxo-1H-tetrazole-1-yl)-3-methylphenyl-2-yl]methyloxy}-4-(4-bromo-2-fluorophenyl)thiazole] | 80% |
| Cc1cccc(-n2nnn(C)c2=O)c1COc1nc(-c2ccc(C(C)(C)C)cc2)cs1 [Compound T042, 2-{[1-(4,5-dihydro-4-methyl-5-oxo-1H-tetrazole-1-yl)-3-methylphenyl-2-yl]methyloxy}-4-[4-(1,1-dimethylethyl)phenyl]thiazole] | 80% |
| Cc1cccc(-n2nnn(C)c2=O)c1COc1nc(-c2cccc(Br)c2)cs1 [Compound T145, 2-{[1-(4,5-dihydro-4-methyl-5-oxo-1H-tetrazole-1-yl)-3-methylphenyl-2-yl]methyloxy}-4-(3-bromophenyl)thiazole] | 80% |
| Cc1cccc(-n2nnn(C)c2=O)c1COc1nc(-c2c(F)c(F)c(F)c(F)c2F)cs1 [Compound T036, 2-{[1-(4,5-dihydro-4-methyl-5-oxo-1H-tetrazole-1-yl)-3-methylphenyl-2-yl]methyloxy}-4-(2,3,4,5,6-pentafluorophenyl)thiazole] | 80% |
| CCc1ccccc1-c1csc(OCc2c(C)cccc2-n2nnn(C)c2=O)n1 [Compound T125, 2-{[1-(4,5-dihydro-4-methyl-5-oxo-1H-tetrazole-1-yl)-3-methylphenyl-2-yl]methyloxy}-4-(2-ethylphenyl)thiazole] | 80% |
| Cc1ccccc1-c1csc(OCc2c(Br)cccc2-n2nnn(C)c2=O)n1 [Compound T091, 2-{[1-(4,5-dihydro-4-methyl-5-oxo-1H-tetrazole-1-yl)-3-bromophenyl-2-yl]methyloxy}-4-(2-methylphenyl)thiazole] | 80% |
| CCCCc1ccc(-c2csc(OCc3c(C)cccc3-n3nnn(C)c3=O)n2)cc1 [Compound T041, 2-{[1-(4,5-dihydro-4-methyl-5-oxo-1H-tetrazole-1-yl)-3-methylphenyl-2-yl]methyloxy}-4-(4-butylphenyl)thiazole] | 80% |

These compounds were tested on common house mosquito (Culex pipiens pallens) (assay: Common house mosquito larva mortality test in treated water). Settings: 24 h, active ingredient concentration 3.5 ppm in water, last instar larva, after 1 day, read-out: mortality of insects.
Format: in vivo
Procedure: Each formulation containing the present Compounds […] prepared according to the above-mentioned Formulation examples was diluted with water so that the active ingredient concentration was set to 500 ppm and the testing drug solutions were prepared. The above-mentioned drug solutions 0.7 mL were added to an ion-exchange water 100 mL (an active ingredient concentration: 3.5 ppm). Twenty (20) last instar larva of common house mosquito (Culex pipiens pallens) were released into the solutions and after 1 day, the number of the dead insects was counted. The mortality of insects was calculated by the following equation. Mortality of insects(%)=(Number of dead insects/Number of tested insects)×100 The testing drug solutions to be used in this Test example were prepared by diluting the formulations prepared according to the above-mentioned Formulation examples with an ion-exchange water so that the active ingredient concentration was set to 500 ppm. The above-mentioned drug solutions 0.7 mL were added to an ion-exchange water 100 mL so that the active ingredient concentration was set to 3.5 ppm. Twenty (20) last instar larva of common house mosquito (Culex pipiens pallens) were released into the solutions and after […], the number of the dead insects was counted. The mortality of insects was calculated by the following equation. Mortality of insects(%)=(Number of dead insects/Number of tested insects)×100

| Structure (SMILES) | pest or weed control at 3.5 ppm |
| --- | --- |
| CCc1ccccc1-c1csc(OCc2c(C)cccc2-n2nnn(C)c2=O)n1 [Compound T125, 2-{[1-(4,5-dihydro-4-methyl-5-oxo-1H-tetrazole-1-yl)-3-methylphenyl-2-yl]methyloxy}-4-(2-ethylphenyl)thiazole] | 100% |
| COc1cc(Cl)ccc1-c1csc(OCc2c(C)cccc2-n2nnn(C)c2=O)n1 [Compound T143, 2-{[1-(4,5-dihydro-4-methyl-5-oxo-1H-tetrazole-1-yl)-3-methylphenyl-2-yl]methyloxy}-4-(4-chloro-2-methoxyphenyl)thiazole] | 100% |

Same assay, conditions: 192 h, active ingredient concentration 3.5 ppm in water, last instar larva, after 8 day, read-out: mortality of insects

| Structure (SMILES) | pest or weed control at 3.5 ppm |
| --- | --- |
| CCCCCCCc1ccccc1-c1csc(OCc2c(C)cccc2-n2nnn(C)c2=O)n1 [Compound T144, 2-{[1-(4,5-dihydro-4-methyl-5-oxo-1H-tetrazole-1-yl)-3-methylphenyl-2-yl]methyloxy}-4-(2-heptylphenyl)thiazole] | 100% |
| Cc1cccc(-n2nnn(C)c2=O)c1COc1nc(-c2ccc(C(C)(C)C)cc2)cs1 [Compound T042, 2-{[1-(4,5-dihydro-4-methyl-5-oxo-1H-tetrazole-1-yl)-3-methylphenyl-2-yl]methyloxy}-4-[4-(1,1-dimethylethyl)phenyl]thiazole] | 100% |
| COc1ccc(C)cc1-c1csc(OCc2c(C)cccc2-n2nnn(C)c2=O)n1 [Compound T148, 2-{[1-(4,5-dihydro-4-methyl-5-oxo-1H-tetrazole-1-yl)-3-methylphenyl-2-yl]methyloxy}-4-(5-methyl-2-methoxyphenyl)thiazole] | 100% |
| CCc1cccc(-n2nnn(C)c2=O)c1COc1nc(-c2ccccc2C)cs1 [Compound T097, 2-{[1-(4,5-dihydro-4-methyl-5-oxo-1H-tetrazole-1-yl)-3-ethylphenyl-2-yl]methyloxy}-4-(2-methylphenyl)thiazole] | 100% |
| Cn1nnn(-c2ccc(F)cc2COc2nc(-c3ccc(Br)cc3)cs2)c1=O [Compound T147, 2-{[1-(4,5-dihydro-4-methyl-5-oxo-1H-tetrazole-1-yl)-4-fluorophenyl-2-yl]methyloxy}-4-(4-bromophenyl)thiazole] | 100% |
| Cc1ccccc1-c1csc(OCc2c(Br)cccc2-n2nnn(C)c2=O)n1 [Compound T091, 2-{[1-(4,5-dihydro-4-methyl-5-oxo-1H-tetrazole-1-yl)-3-bromophenyl-2-yl]methyloxy}-4-(2-methylphenyl)thiazole] | 100% |
| CCCCCCCc1cccc(-c2csc(OCc3c(C)cccc3-n3nnn(C)c3=O)n2)c1 [Compound T146, 2-{[1-(4,5-dihydro-4-methyl-5-oxo-1H-tetrazole-1-yl)-3-methylphenyl-2-yl]methyloxy}-4-(3-heptylphenyl)thiazole] | 100% |

These compounds were tested on housefly (Musca domestica) (assay: Housefly mortality test on treated filter paper). Settings: 500 ppm solution 0.7 mL on filter paper, female adult, after 24 hours.
Format: in vivo
Procedure: Each formulation containing the present Compounds […] prepared according to the above-mentioned Formulation examples was diluted with water so that the active ingredient concentration was set to 500 ppm and the testing drug solutions were prepared. […] Ten (10) individuals of female adult housefly (Musca domestica) was released into the polyethylene cup and the cup was covered with the lid. After 24 hours, the number of the dead insects was counted. The mortality of insects was calculated by the following equation. Mortality of insects(%)=(Number of dead insects/Number of tested insects)×100

| Structure (SMILES) | mortality of insects |
| --- | --- |
| Cc1ccc(-c2csc(OCc3c(C)cccc3-n3nnn(C)c3=O)n2)cc1 [Compound T039, 2-{[1-(4,5-dihydro-4-methyl-5-oxo-1H-tetrazole-1-yl)-3-methylphenyl-2-yl]methyloxy}-4-(4-methylphenyl)thiazole] | 100% |
| Cc1cccc(-n2nnn(C)c2=O)c1COc1nc(-c2ccc(I)cc2)cs1 [Compound T033, 2-{[1-(4,5-dihydro-4-methyl-5-oxo-1H-tetrazole-1-yl)-3-methylphenyl-2-yl]methyloxy}-4-(4-iodophenyl)thiazole] | 100% |
